The supplement of paper PMC10307832

Key:
Test in all cases: relative viability (nuclei count vs DMSO), 5 days (fraction); higher = more cells survive
[1] = compound: C1=CC=C2C(=C1)N=C(S2)C(C#N)C3=NC(=NC=C3)NCCC4=CN=CC=C4 + CC(=O)Nc1cccc(-n2c(=O)n(C3CC3)c(=O)c3c(Nc4ccc(I)cc4F)n(C)c(=O)c(C)c32)c1 [Trametinib] (partner 0.02 µM)
Outline: (§1)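 Lung cancer cell lines were seeded in 1536-well plates and dosed by pin tool the next day, with either a single drug or a fixed anchor-drug dose combined with five library-drug doses (not always all listed) spaced in √10 steps. Five days later, one step fixed the cells and stained their nuclei (final 0.05% Triton X-100, 1% formaldehyde, 1 ug/ml Hoechst), and nuclei were counted on 4× images. Relative viability is the nuclei count in treated wells divided by the count in vehicle wells, and each value is the median of duplicate plates.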

[2] = compound: C1=CC=C2C(=C1)N=C(S2)C(C#N)C3=NC(=NC=C3)NCCC4=CN=CC=C4 + COc1cc2c(Oc3ccc(NC(=O)C4(C(=O)Nc5ccc(F)cc5)CC4)cc3F)ccnc2cc1OCCCN1CCOCC1 [Foretinib] (partner 0.25 µM)
Outline: as §1

Vandetanib + Trametinib = compound: COc1cc2/c(=N/c3ccc(Br)cc3F)nc[nH]c2cc1OCC1CCN(C)CC1 [Vandetanib] + CC(=O)Nc1cccc(-n2c(=O)n(C3CC3)c(=O)c3c(Nc4ccc(I)cc4F)n(C)c(=O)c(C)c32)c1 [Trametinib] (partner 0.02 µM)
Outline: as §1

NVP-TAE684 + Vorinostat = compound: COc1cc(N2CCC(N3CCN(C)CC3)CC2)ccc1Nc1ncc(Cl)c(Nc2ccccc2S(=O)(=O)C(C)C)n1 [NVP-TAE684] + O=C(CCCCCCC(=O)Nc1ccccc1)NO [Vorinostat] (partner 1 µM)
Outline: as §1

| Cell Line | relative viability ([1]; first compound 0.005 µM) | relative viability ([1]; first compound 0.01581 µM) | relative viability ([1]; first compound 0.05 µM) | relative viability ([1]; first compound 0.1581 µM) | relative viability ([1]; first compound 0.5 µM) | relative viability ([2]; first compound 0.005 µM) | relative viability ([2]; first compound 0.01581 µM) | relative viability ([2]; first compound 0.05 µM) | relative viability ([2]; first compound 0.1581 µM) | relative viability ([2]; first compound 0.5 µM) | relative viability (Vandetanib + Trametinib; first compound 0.02 µM) | relative viability (Vandetanib + Trametinib; first compound 0.06325 µM) | relative viability (Vandetanib + Trametinib; first compound 0.2 µM) | relative viability (Vandetanib + Trametinib; first compound 0.6325 µM) | relative viability (Vandetanib + Trametinib; first compound 2 µM) | relative viability (NVP-TAE684 + Vorinostat; first compound 0.2 µM) | relative viability (NVP-TAE684 + Vorinostat; first compound 0.6325 µM) | relative viability (NVP-TAE684 + Vorinostat; first compound 2 µM) |
| --- | --- | --- | --- | --- | --- | --- | --- | --- | --- | --- | --- | --- | --- | --- | --- | --- | --- | --- |
| NCI-H1437 | 0.503 | 0.55 | 0.52 | 0.539 | 0.427 | 1.26 | 1.3 | 1.27 | 1.32 | 1.23 | 0.592 | 0.466 | 0.557 | 0.432 | 0.517 | 0.832 | 0.899 | 0.426 |
| HCC-366 | 0.281 | 0.378 | 0.314 | 0.404 | 0.307 | 0.832 | 0.839 | 0.872 | 0.915 | 0.923 | 0.265 | 0.339 | 0.343 | 0.362 | 0.269 | 0.365 | 0.311 | 0.239 |
| NCI-H2342 | 0.733 | 0.89 | 0.867 | 0.798 | 0.844 | 0.926 | 1.17 | 0.997 | 1.04 | 1.17 | 0.823 | 0.826 | 0.869 | 0.851 | 0.809 | 0.848 | 0.776 | 0.678 |
| NCI-H661 | 0.423 | 0.535 | 0.542 | 0.674 | 0.589 | 1.07 | 1.04 | 0.943 | 1.03 | 1.11 | 0.55 | 0.543 | 0.63 | 0.601 | 0.532 | 0.817 | 0.741 | 0.445 |
| SW 900 | 0.586 | 0.806 | 0.584 | 1.06 | 0.648 | 0.63 | 0.714 | 0.704 | 1.02 | 0.985 | 0.654 | 0.71 | – | 0.673 | 0.549 | 0.686 | 0.46 | 0.687 |
| HCC-78 | 1.01 | 0.782 | 0.924 | 0.693 | 0.729 | 0.473 | 0.526 | 0.523 | 0.559 | 0.504 | 0.73 | 0.814 | 0.684 | 0.809 | 0.525 | 0.316 | 0.411 | 0.23 |
| NCI-H1355 | 0.439 | 0.425 | 0.473 | 0.494 | 0.324 | 0.929 | 1.06 | 0.96 | 1.08 | 0.923 | 0.412 | 0.426 | 0.438 | 0.465 | 0.402 | 0.561 | 0.605 | 0.327 |
| NCI-H1993 | 0.374 | 0.516 | 0.458 | 0.514 | 0.466 | 0.803 | 0.768 | 0.723 | 0.783 | 0.665 | 0.568 | 0.552 | 0.499 | 0.545 | 0.494 | 0.713 | 0.695 | 0.48 |
| NCI-H1734 | 0.629 | 0.745 | 0.578 | 0.75 | 0.649 | – | 0.8 | 0.913 | 0.993 | 0.758 | 0.639 | 0.694 | 0.667 | 0.673 | 0.709 | 0.846 | – | 0.631 |
| SK-MES-1 | 0.576 | 0.555 | 0.531 | 0.604 | 0.629 | 0.836 | 1.07 | 0.863 | 1.11 | 0.993 | 0.593 | 0.464 | 0.304 | 0.405 | 0.357 | 0.977 | 1.09 | 0.88 |
| COR-L 105 | 0.379 | 0.423 | 0.412 | 0.474 | 0.498 | 0.802 | 1.12 | 0.963 | 1.26 | 0.878 | 0.42 | 0.405 | 0.427 | 0.383 | 0.416 | – | 0.78 | 0.509 |
| EMC-BAC-2 | 1.03 | 0.938 | 0.812 | 0.963 | 0.855 | 0.946 | 1.01 | 0.994 | 1.03 | 1.03 | 1.01 | 0.844 | 0.872 | 0.902 | 0.822 | 0.46 | 0.338 | 0.393 |
| NCI-H1915 | – | 0.318 | 0.304 | 0.329 | 0.305 | 1.08 | 1.11 | 1.1 | 1.3 | 1.05 | 0.29 | 0.291 | 0.29 | 0.329 | 0.292 | 0.579 | 0.547 | 0.459 |
| NCI-H358 | 0.125 | 0.132 | 0.113 | 0.139 | 0.15 | 0.635 | 0.677 | 0.776 | 0.772 | 0.642 | 0.153 | 0.129 | 0.123 | 0.128 | 0.123 | 0.697 | 0.608 | 0.0861 |
| CAL-12T | 0.278 | 0.327 | 0.395 | 0.34 | 0.384 | 1.06 | 1.11 | 0.931 | 1.27 | 0.967 | 0.342 | 0.3 | 0.316 | 0.242 | 0.305 | 0.786 | 0.615 | 0.245 |
| NCI-H2085 | 0.528 | 0.652 | 0.521 | 0.576 | 0.481 | 0.891 | 0.811 | 0.888 | 1.03 | 0.979 | 0.549 | 0.499 | 0.5 | 0.593 | 0.484 | 0.817 | 0.755 | 0.725 |
| LCLC-97TM1 | 0.152 | 0.202 | 0.172 | 0.239 | 0.2 | 0.942 | 0.96 | 0.899 | 0.956 | 0.983 | 0.201 | 0.217 | 0.202 | 0.192 | 0.165 | 0.548 | 0.589 | 0.157 |
| NCI-H596 | 0.7 | 0.86 | 0.762 | 0.777 | 0.765 | 0.656 | 0.955 | 0.741 | 0.853 | 0.971 | 0.773 | 0.763 | 0.756 | 0.758 | 0.634 | 0.565 | 0.578 | 0.647 |
